From patent publication US20050101595A1, “N-containing cycloalkyl-substituted amino-thiazole derivatives and pharmaceutical compositions for inhibiting cell proliferation and methods for their use” (PFIZER INC., priority 2003, published 2005)
Where a name gives a salt, the structure may show the parent alone. Read-outs that look alike come from different tables or passages of the source. One block for each compound: values may come before it.

Assays:
HCT-116 cell line = assay: Inhibition of cell growth, tetrazolium salt (MTT) assay; type: cell-based; conditions: for HCT-116 % Inhibition at 0.25 μM: 0.25 μM compound; for IC50: Homo sapiens, HCT-116, 120 h, MTT, three to five days, read-out: HCT-116 IC50
Outline: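 MTT colorimetric viability: three-to-five-day compound exposure in 0.5% (v/v) DMSO at 37° C, MTT 0.2 mg/mL for the last 4 h, A540 compared with vehicle-treated cells.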

[1] = target: human CDK4 and genetically truncated (1-264) cyclin D3 (Homo sapiens, UniProt P11802); assay: Inhibition of CDK4/Cyclin D Retinoblastoma Kinase Activity; type: biochemical; conditions: for Ki: apparent Ki, CDK4/truncated cyclin D3, Rb fragment substrate, 25 μM ATP
Outline: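 Read-out: 32P/33P incorporation into Rb fragment (386-928) captured on nitrocellulose, phosphorimager. Enzyme 5 nM CDK4/cyclin D3(1-264) from insect cells; ATP 25 μM, pH 7.4, 30 °C, 20 min (60 min for tight binders). Ki from competitive fits.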

CDK2/Cyclin A = CDK2/Cyclin A (Homo sapiens, UniProt P24941); assay: Inhibition of CDK2/Cyclin A Retinoblastoma Kinase Activity; type: biochemical; conditions: for Ki: apparent Ki, CDK2/proteolyzed cyclin A, Rb fragment substrate, 25 μM ATP
Outline: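 Human CDK2, baculovirus/insect-cell expressed, complexed with proteolyzed cyclin A (10 nM or 19 nM CDK2) phosphorylates an Rb fragment with 25 μM [32P/33P]ATP at pH 7.4, 30° C, for 60 or 75 minutes under initial-rate conditions. Filter-captured radioactivity is read by phosphorimager; apparent Ki from competitive-inhibition fits.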

[2] = 0.1 μM compound, HCT-116, Table 3
[3] = 0.1 μM compound, HCT-116, Table 4

Sequence of human CDK4 and genetically truncated (1-264) cyclin D3 (P11802 whole entry, the tested form may be a part): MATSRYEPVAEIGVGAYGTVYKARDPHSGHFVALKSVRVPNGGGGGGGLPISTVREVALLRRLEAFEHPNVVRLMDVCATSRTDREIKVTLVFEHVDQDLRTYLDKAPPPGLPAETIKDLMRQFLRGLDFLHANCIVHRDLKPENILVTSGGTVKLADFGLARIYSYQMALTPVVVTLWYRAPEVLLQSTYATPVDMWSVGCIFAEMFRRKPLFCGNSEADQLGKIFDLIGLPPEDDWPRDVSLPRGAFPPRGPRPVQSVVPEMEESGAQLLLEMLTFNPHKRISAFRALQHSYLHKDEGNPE
Sequence of human CDK4 and genetically truncated (1-264) cyclin D3 (P30281 1-264 partner): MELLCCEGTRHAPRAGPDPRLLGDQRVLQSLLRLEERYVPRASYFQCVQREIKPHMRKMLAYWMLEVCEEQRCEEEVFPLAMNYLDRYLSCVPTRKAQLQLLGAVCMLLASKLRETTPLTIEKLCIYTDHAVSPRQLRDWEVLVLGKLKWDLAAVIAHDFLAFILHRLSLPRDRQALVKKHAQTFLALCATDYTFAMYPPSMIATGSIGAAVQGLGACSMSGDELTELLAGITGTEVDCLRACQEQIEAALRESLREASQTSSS

Compound: COC(=O)c1csc(S(=O)(=O)N2CCC(Nc3nc(N)c(C(=O)c4c(F)cccc4F)s3)CC2)c1OC [Example P70]
HCT-116 % Inhibition at 0.1 μM (HCT-116 cell line; [2]): 14%
HCT-116 % Inhibition at 0.25 μM (HCT-116 cell line; HCT-116, Table 3): 27%
CDK4 % Inhibition at 0.03 μM ([1]; 0.03 μM compound, Table 3): 60%
CDK2 % Inhibition at 0.03 μM (CDK2/Cyclin A; 0.03 μM compound, Table 3): 37%

Compound: Nc1nc(NC2CCN(C(=O)c3ccc(Cl)nc3)CC2)sc1C(=O)c1c(F)cccc1F [Example C9, 1-(4-Amino-2-{1-[-(6-chloro-pyridin-3-yl)-methanoyl]-piperidin-4-ylamino}-thiazol-5-yl)-1-(2,6-difluoro-phenyl)-methanone]
IC50 (HCT-116 cell line; first HCT-116 column (c4)): 590 nM
IC50 (HCT-116 cell line; second HCT-116 column (c5)): 1300 nM
Ki [1]: 20 nM
Ki (CDK2/Cyclin A): 67 nM

Compound: CC(=O)N(C)C1CCN(CCCS(=O)(=O)N2CCC(Nc3nc(N)c(C(=O)c4c(F)cccc4F)s3)CC2)C1 (stereo not shown) [Example K20, N-{1-[3-(4-{4-Amino-5-[1-(2,6-difluoro-phenyl)-methanoyl]-thiazol-2-ylamino}-piperidine-1-sulfonyl)-propyl]-pyrrolidin-3-yl}-N-methyl-acetamide]
IC50 (HCT-116 cell line; first HCT-116 column (c4)): 2000 nM
IC50 (HCT-116 cell line; second HCT-116 column (c5)): 5000 nM
Ki [1]: 1.5 nM
Ki (CDK2/Cyclin A): 4.8 nM

Compound: Nc1nc(NC2CCN(C(=O)c3cccc4c3-c3ccccc3C4=O)CC2)sc1C(=O)c1c(F)cccc1F [Example Q74]
HCT-116 % Inhibition at 0.1 μM (HCT-116 cell line; [3]): 3%
HCT-116 % Inhibition at 0.25 μM (HCT-116 cell line; HCT-116, Table 4): 35%
CDK4 % Inhibition at 0.03 μM ([1]; 0.03 μM compound, Table 4): 19%
CDK2 % Inhibition at 0.03 μM (CDK2/Cyclin A; 0.03 μM compound, Table 4): 2%

Compound: Nc1nc(NC2CCN(C(=O)Nc3cc(C(F)(F)F)ccc3F)CC2)sc1C(=O)c1c(F)cccc1F [Example O85]
HCT-116 % Inhibition at 0.25 μM (HCT-116 cell line; HCT-116, Table 2): 47%
CDK4 % Inhibition at 0.03 μM ([1]; 0.03 μM compound, Table 2): 8%
CDK2 % Inhibition At 0.03 μM (CDK2/Cyclin A; 0.03 μM compound, Table 2): 34%

Compound: Nc1nc(NC2CCN(C(=O)CC3CCCC3)CC2)sc1C(=O)c1c(F)cccc1F [Example R96]
HCT-116 % Inhibition at 0.1 μM (HCT-116 cell line; HCT-116 cells, at 0.1 μM): 2%
HCT-116 5 Inhibition at 0.25 μM (HCT-116 cell line; HCT-116 cells): 36
CDK4 % Inhibition at 0.03 μM ([1]; at 0.03 μM): −18%
CDK2 % Inhibition at 0.03 μM (CDK2/Cyclin A; at 0.03 μM): −20%

Compound: CCOc1ccccc1C(=O)N1CCC(Nc2nc(N)c(C(=O)c3c(F)cccc3F)s2)CC1 [Example R119]
HCT-116 % Inhibition at 0.1 μM (HCT-116 cell line; HCT-116 cells, at 0.1 μM): 3%
HCT-116 5 Inhibition at 0.25 μM (HCT-116 cell line; HCT-116 cells): 53
CDK4 % Inhibition at 0.03 μM ([1]; at 0.03 μM): 31%
CDK2 % Inhibition at 0.03 μM (CDK2/Cyclin A; at 0.03 μM): 27%

Second part, led by results:

CDK4 % Inhibition at 0.03 μM ([1]; 0.03 μM compound, Table 4): 60%
CDK2 % Inhibition at 0.03 μM (CDK2/Cyclin A; 0.03 μM compound, Table 4): 30%
Compound: Cc1cccc(C(=O)N2CCC(Nc3nc(N)c(C(=O)c4c(F)cccc4F)s3)CC2)c1 [Example Q25]
HCT-116 % Inhibition at 0.1 μM (HCT-116 cell line; [3]): 31%
HCT-116 % Inhibition at 0.25 μM (HCT-116 cell line; HCT-116, Table 4): 85%

CDK4 % Inhibition at 0.03 μM ([1]; 0.03 μM compound, Table 4): 55%
CDK2 % Inhibition at 0.03 μM (CDK2/Cyclin A; 0.03 μM compound, Table 4): 42%
Compound: Nc1nc(NC2CCN(C(=O)OCc3ccc([N+](=O)[O-])cc3)CC2)sc1C(=O)c1c(F)cccc1F [Example Q85]
HCT-116 % Inhibition at 0.1 μM (HCT-116 cell line; [3]): 1%
HCT-116 % Inhibition at 0.25 μM (HCT-116 cell line; HCT-116, Table 4): 31%

IC50 (HCT-116 cell line; first HCT-116 column (c4)): 390 nM
IC50 (HCT-116 cell line; second HCT-116 column (c5)): 2000 nM
Ki [1]: 0.58 nM
Ki (CDK2/Cyclin A): < 1 nM
Compound: Nc1nc(NC2CCN(S(=O)(=O)c3ccc(CN4CCCC4)cc3)CC2)sc1C(=O)c1c(F)cccc1F [Example J6, 1-{4-Amino-2-[1-(4-pyrrolidin-1-ylmethyl-benzenesulfonyl)-piperidin-4-ylamino]-thiazol-5-yl}-1-(2,6-difluoro-phenyl)-methanone Hydrochloride]

IC50 (HCT-116 cell line; first HCT-116 column (c4)): 500 nM
IC50 (HCT-116 cell line; second HCT-116 column (c5)): 1300 nM
Ki [1]: 1 nM
Ki (CDK2/Cyclin A): < 1 nM
Compound: CC(=O)Nc1ccc(S(=O)(=O)N2CCC(Nc3nc(N)c(C(=O)c4c(F)cccc4F)s3)CC2)cc1 [Example F5, N-(4-{4-[4-Amino-5-(2,6-difluoro-benzoyl)-thiazol-2-ylamino]-piperidine-1-sulfonyl}-phenyl)-acetamide]

CDK4 % Inhibition at 0.03 μM ([1]; 0.03 μM compound, Table 3): 70%
CDK2 % Inhibition at 0.03 μM (CDK2/Cyclin A; 0.03 μM compound, Table 3): 72%
Compound: Nc1nc(NC2CCN(S(=O)(=O)c3ccc(CBr)cc3)CC2)sc1C(=O)c1c(F)cccc1F [Example P68]
HCT-116 % Inhibition at 0.1 μM (HCT-116 cell line; [2]): 8%
HCT-116 % Inhibition at 0.25 μM (HCT-116 cell line; HCT-116, Table 3): 25%

CDK4 % Inhibition at 0.03 μM ([1]; 0.03 μM compound, Table 3): 15%
CDK2 % Inhibition at 0.03 μM (CDK2/Cyclin A; 0.03 μM compound, Table 3): −16%
Compound: Nc1nc(NC2CCN(S(=O)(=O)c3ccc(O)c(C(=O)O)c3)CC2)sc1C(=O)c1c(F)cccc1F [Example P58]
HCT-116 % Inhibition at 0.1 μM (HCT-116 cell line; [2]): 14%
HCT-116 % Inhibition at 0.25 μM (HCT-116 cell line; HCT-116, Table 3): 30%

CDK4 % Inhibition at 0.03 μM ([1]; 0.03 μM compound, Table 4): 76%
CDK2 % Inhibition at 0.03 μM (CDK2/Cyclin A; 0.03 μM compound, Table 4): 32%
Compound: Nc1nc(NC2CCN(C(=O)c3ccc(Cl)cc3)CC2)sc1C(=O)c1c(F)cccc1F [Example Q27]
HCT-116 % Inhibition at 0.1 μM (HCT-116 cell line; [3]): 4%
HCT-116 % Inhibition at 0.25 μM (HCT-116 cell line; HCT-116, Table 4): 40%
